Values after ≈ are worked out from the molar mass of the structure shown.

Broadly, the MIC is the lowest concentration that inhibits growth of the organism.

In assay [1] the test system is HeLa cells. As to the kind of experiment: Cell cycle analysis (PI staining, flow cytometry). The note with it: 24 h, concentration corresponding to IC50. Type of assay: cell-based, human. As for the experimental part: The MTT and LDH release assays provided evidence that aziridine phosphine oxides 5 and 7 inhibit cancer cell viability at concentrations equal to their respective IC50 values through antiproliferative mechanisms rather than by inducing cell death. It is expected that such observations will be reflected in cell cycle disturbances. To investigate which phase of the cell cycle is arrested, a cell cycle analysis was performed using propidium iodide (PI) staining. PI binds in proportion to the amount of DNA present in the cell. As a result of DNA replication, the cells in the S phase of the cell cycle contain more DNA than cells in the G1 phase. […] Before the exact analysis of the obtained results, we utilized a pre-gate to define the counted cells to be analyzed for cell cycle distribution. […] These findings confirmed the antiproliferative activity of these compounds.
Figure 4 Effects of 5 and 7 on cell cycle phase distribution in HeLa cells compared to untreated control. […] Data are expressed as mean ± SD of two independent experiments. Statistical significance in comparison with the untreated control, measured by two-way analysis of variance (ANOVA) followed by Bonferroni multiple comparison test, is indicated by asterisks: (*) p < 0.05, (**) p < 0.01, (***) p < 0.001.
Cell cycle analysis: The distribution of cell cycle phases was measured using flow cytometry and propidium iodide (PI) staining. The PI intercalates into the major groove of double-stranded DNA, producing a highly fluorescent signal when excited at 488 nm, with a broad emission centered around 600 nm. PI binds in proportion to the amount of DNA present in the cell. HeLa cells were seeded on 60 mm dishes at a density of 5 × 10^5 in 3 mL of Dulbecco’s Modified Eagle’s Medium F12 (DMEM-F12, Biowest, Nuaillé, France) supplemented with 10% fetal bovine serum (FBS, Biowest), 100 units/mL of penicillin G and 100 μg/mL of streptomycin (Biowest, Nuaillé, France) and incubated for 24 h at 37 °C and 5% CO2. Then, compounds 5 or 7 were added at a concentration corresponding to their IC50 values and the plate was incubated for the next 24 h. Untreated cells were used as a positive control. The cells were then harvested by trypsinization, suspended in culture medium (1 mL), centrifuged at 3600 rpm for 10 min, and washed twice with dPBS (Dulbecco’s phosphate-buffered saline, Cytogen–Polska Sp. z o.o, Zgierz, Poland). The cell sediment was resuspended in dPBS (600 μL) and fixed in 70% ice-cold ethanol. After storing the cells at 4 °C for 24 h, they were stained in PI staining solution (600 µL, 50 μg/mL of PI, and 100 μg/mL of RNAse A in dPBS) and incubated for 30 min at 37 °C in darkness. The cell cycle distribution was analyzed by flow cytometry using an LSRII (Becton Dickinson, Franklin Lakes, NJ, USA) instrument at 488 nm excitation and 535/617 emission wavelengths, and the cell cycle phase distribution from two independent experiments (10,000 cell counts/sample) was determined with the FlowJo 7.6.1 software (FlowJo, LLC, Ashland, OR, USA) using a built-in cell cycle analysis module (Watson pragmatic algorithm).

Assay [2] relates to Staphylococcus aureus ATCC 6538. The experiment in a line: MIC, two-fold microdilution (EUCAST), S. aureus reference strain. It is filed as cell-based. The conditions noted are these: Staphylococcus aureus, ATCC6538, 18 h, read-out: MIC (µM) Staphylococcus aureus ATCC 6538. An excerpt:
A panel of reference bacteria, including Escherichia coli NCTC 8196, Staphylococcus aureus ATCC 6538, Klebsiella pneumoniae ATCC 13883, and Pseudomonas aeruginosa NCTC 6749, was used to assess the antibacterial activity of the nine tested aziridine phosphines (1–4) and aziridine phosphine oxides (5–9). The two-fold microdilution method, following EUCAST guidelines, was used to determine a minimal inhibitory concentration (MIC) of each compound, as presented in Table S1.
Antibacterial activity: The in vitro antibacterial activity of nine tested aziridine phosphines (1–4) and aziridine phosphine oxides (5–9) was evaluated against reference bacterial strains (E. coli NCTC 8196, S. aureus ATCC 6538, K. pneumoniae ATCC 13883, P. aeruginosa NCTC 6749) and 12 S. aureus clinical isolates, including two methicillin-resistant isolates (MRSA, D15 and D17) obtained from infected patients hospitalized at the Oncological Hospital in Lodz (Poland). All strains were kept frozen at −80 °C in Tryptic Soy Broth with 15% glycerol. The minimal inhibitory concentration (MIC) is defined as the lowest concentration of the compound that prevents visible growth of bacteria using the microdilution method followed the EUCAST guidelines. Each compound was added to 96-well microplates in two-fold dilutions at concentrations from 3.125 to 100 μM in Mueller–Hinton broth. […] Bacterial culture was added into wells at a density of 5 × 10^5 CFU mL^−1, and plates were incubated at 37 °C for 18 h. As a positive control, an untreated bacterial culture was used, and a clear culture medium served as a negative control. The optical density at OD600 was measured using the SpectraMax i3 Multi-Mode Platform (Molecular Devices, San Jose, CA, USA). Ciprofloxacin hydrochloride (CIP, Sigma-Aldrich, Darmstadt, Germany) was used as a reference antimicrobial drug.
Background: Broth dilution looks for growth in wells or tubes with falling amounts of substance.

On to `CC(C)C[C@H]1CN1c1ccccc1P(=O)(c1ccccc1)c1ccccc1` [Compound 7], for which, in assay [1], the “cell cycle arrest (phase distribution)” value was “significant cell arrest in the S phase”, the “number of cells in the sub-G1 phase (indicative of apoptosis)” value is “significantly increased” and the “stage of S-phase arrest (histograms of cell cycle distribution)” value was “more effective in the late S phase”. In addition, the MIC in assay [2] was determined as 50 µM (≈ 18.8 µg/mL).

As for `CC(C)[C@@H]1CN1c1ccccc1P(=O)(c1ccccc1)c1ccccc1` [Compound 5], in assay [1], the “cell cycle arrest (phase distribution)” value is reported as “significant cell arrest in the S phase”, the “number of cells in the sub-G1 phase (indicative of apoptosis)” value is on record as “significantly increased” and the “stage of S-phase arrest (histograms of cell cycle distribution)” value is recorded as “cell arrest mainly in the early stages of the S phase”. Further, the MIC in assay [2] turned out to be 50 µM (≈ 18.1 µg/mL).

The record behind these values is paper PMC11012799 (Molecules, 2024).
